Where a SMILES comes first, the peptide text is derived from it. [ ]: non-standard residue; d: D form. Aib = CC(C)(N)C(=O)O
Assays:
in vivo = conditions: male, rat
human GLP-1R = human GLP-1R (Homo sapiens, UniProt P43220); test: Peptide-receptor mediated cAMP accumulation (LANCE Ultra cAMP) in CHO-K1 cells transfected with human GLP-1R; format: cell-based; conditions: hGLP1 pEC50 (cAMP mean (n = 3): 11 point curve starting at 1 nM, Table 3)
Chain of human GLP-1R (P43220 24-463): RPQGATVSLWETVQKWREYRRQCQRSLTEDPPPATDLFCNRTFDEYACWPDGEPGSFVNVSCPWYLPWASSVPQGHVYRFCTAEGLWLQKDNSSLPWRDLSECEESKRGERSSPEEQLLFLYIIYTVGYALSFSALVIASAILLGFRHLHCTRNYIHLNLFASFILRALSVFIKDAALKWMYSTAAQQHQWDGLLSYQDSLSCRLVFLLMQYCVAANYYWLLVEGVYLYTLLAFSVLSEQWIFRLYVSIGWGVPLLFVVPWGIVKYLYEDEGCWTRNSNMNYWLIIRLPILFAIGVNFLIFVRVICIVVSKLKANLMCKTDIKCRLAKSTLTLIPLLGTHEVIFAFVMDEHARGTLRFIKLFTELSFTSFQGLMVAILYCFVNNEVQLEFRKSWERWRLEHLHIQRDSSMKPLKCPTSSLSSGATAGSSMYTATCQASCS

Row | SMILES | clearance (in vivo) [mL/min/kg] | EC50 (human GLP-1R) [nM]
1 | CC(C)C[C@H](NC(=O)[C@H](Cc1ccc(O)cc1)NC(=O)[C@H](CCCCN)NC(=O)[C@H](CO)NC(=O)[C@H](Cc1ccc(O)cc1)NC(=O)[C@H](CC(=O)O)NC(=O)[C@H](CO)NC(=O)[C@@H](NC(=O)[C@H](Cc1ccccc1)NC(=O)[C@@H](NC(=O)CNC(=O)[C@H](Cc1c[nH]cn1)NC(=O)[C@H](CO)NC(=O)[C@@H](N)Cc1ccc(O)cc1)[C@@H](C)O)[C@@H](C)O)C(=O)N[C@@H](CC(=O)O)C(=O)NC(C)(C)C(=O)N[C@@H](CCCCN)C(=O)N[C@@H](CCCNC(=N)N)C(=O)N[C@@H](C)C(=O)N[C@@H](CCC(N)=O)C(=O)N[C@@H](CCC(=O)O)C(=O)N[C@@H](Cc1ccccc1)C(=O)N[C@H](C(=O)NC(C)(C)C(=O)N[C@@H](Cc1c[nH]c2ccccc12)C(=O)N[C@@H](CC(C)C)C(=O)N[C@@H](CCC(=O)O)C(=O)N[C@@H](CC(=O)O)C(=O)N[C@@H](CCC(=O)O)C(=O)NCC(=O)N1CCC[C@H]1C(=O)N[C@@H](CO)C(=O)N[C@@H](CO)C(=O)NCC(=O)N[C@@H](C)C(=O)N1CCC[C@H]1C(=O)N1CCC[C@H]1C(=O)N1CCC[C@H]1C(=O)N[C@@H](CO)C(=O)O)C(C)C [Compound A28] (H-YSHGTFTSDYSKYLD[Aib]KRAQEFV[Aib]WLEDEGPSSGAPPPS-OH) | 34.7 | > 1
2 | CC(C)C[C@H](NC(=O)[C@H](Cc1c[nH]c2ccccc12)NC(=O)[C@H](CCCCN)NC(=O)[C@H](CO)NC(=O)[C@H](Cc1ccc(O)cc1)NC(=O)[C@H](CC(=O)O)NC(=O)[C@H](CO)NC(=O)[C@@H](NC(=O)[C@H](Cc1ccccc1)NC(=O)[C@@H](NC(=O)CNC(=O)[C@H](Cc1c[nH]cn1)NC(=O)[C@@H](NC(=O)[C@@H](N)Cc1ccc(O)cc1)[C@@H](C)O)[C@@H](C)O)[C@@H](C)O)C(=O)N[C@@H](CC(=O)O)C(=O)NC(C)(C)C(=O)N[C@@H](C)C(=O)N[C@@H](CCCNC(=N)N)C(=O)N[C@@H](C)C(=O)N[C@@H](CCC(N)=O)C(=O)N[C@@H](CCC(=O)O)C(=O)N[C@@H](Cc1ccccc1)C(=O)N[C@H](C(=O)NC(C)(C)C(=O)N[C@@H](Cc1c[nH]c2ccccc12)C(=O)N[C@@H](CC(C)C)C(=O)N[C@@H](CCC(=O)O)C(=O)N[C@@H](CC(=O)O)C(=O)N[C@@H](CCC(=O)O)C(=O)N1CCC[C@H]1C(=O)N[C@@H](CO)C(=O)N[C@@H](CO)C(=O)NCC(=O)N[C@@H](C)C(=O)N1CCC[C@H]1C(=O)N1CCC[C@H]1C(=O)N1CCC[C@H]1C(=O)N[C@@H](CO)C(=O)O)C(C)C [Compound A35] (H-YTHGTFTSDYSKWLD[Aib]ARAQEFV[Aib]WLEDEPSSGAPPPS-OH; N-terminus assumed) | 30.1 | > 1
3 | CC(C)C[C@H](NC(=O)[C@H](Cc1ccc(O)cc1)NC(=O)[C@H](CCCCN)NC(=O)[C@H](CO)NC(=O)[C@H](Cc1ccc(O)cc1)NC(=O)[C@H](CC(=O)O)NC(=O)[C@H](CO)NC(=O)[C@@H](NC(=O)[C@H](Cc1ccccc1)NC(=O)[C@@H](NC(=O)CNC(=O)[C@H](Cc1c[nH]cn1)NC(=O)[C@H](CO)NC(=O)[C@@H](N)Cc1ccc(O)cc1)[C@@H](C)O)[C@@H](C)O)C(=O)N[C@@H](CC(=O)O)C(=O)NC(C)(C)C(=O)N[C@@H](CCCCN)C(=O)N[C@@H](CCCNC(=N)N)C(=O)N[C@@H](C)C(=O)N[C@@H](CCC(N)=O)C(=O)N[C@@H](CCC(=O)O)C(=O)N[C@@H](Cc1ccccc1)C(=O)N[C@H](C(=O)NC(C)(C)C(=O)N[C@@H](Cc1c[nH]c2ccccc12)C(=O)N[C@@H](CC(C)C)C(=O)N[C@@H](CCC(=O)O)C(=O)N[C@@H](CC(=O)O)C(=O)N[C@@H](CCC(=O)O)C(=O)N[C@@H](CCCCN)C(=O)N[C@@H](CCCNC(=N)N)C(=O)N[C@@H](CC(N)=O)C(=O)N[C@@H](CCCCN)C(=O)N[C@@H](CC(N)=O)C(=O)N1CCC[C@H]1C(=O)N1CCC[C@H]1C(=O)N1CCC[C@H]1C(=O)N[C@@H](CO)C(=O)O)C(C)C [Compound A48] (H-YSHGTFTSDYSKYLD[Aib]KRAQEFV[Aib]WLEDEKRNKNPPPS-OH; N-terminus assumed) | 37 | > 1
4 | CC[C@H](C)[C@H](NC(=O)[C@H](CC(=O)O)NC(=O)[C@H](CC(C)C)NC(=O)[C@H](Cc1ccc(O)cc1)NC(=O)[C@H](CCCCN)NC(=O)[C@H](CO)NC(=O)[C@H](Cc1ccc(O)cc1)NC(=O)[C@H](CC(=O)O)NC(=O)[C@H](CO)NC(=O)[C@@H](NC(=O)[C@H](Cc1ccccc1)NC(=O)[C@@H](NC(=O)CNC(=O)[C@H](Cc1c[nH]cn1)NC(=O)[C@H](CO)NC(=O)[C@@H](N)Cc1ccc(O)cc1)[C@@H](C)O)[C@@H](C)O)C(=O)N[C@@H](CCCCN)C(=O)N[C@@H](CCCNC(=N)N)C(=O)N[C@@H](C)C(=O)N[C@@H](CCC(N)=O)C(=O)N[C@@H](CCC(=O)O)C(=O)N[C@@H](Cc1ccccc1)C(=O)N[C@H](C(=O)NC(C)(C)C(=O)N[C@@H](Cc1c[nH]c2ccccc12)C(=O)N[C@@H](CC(C)C)C(=O)N[C@@H](CCC(=O)O)C(=O)N[C@@H](CC(=O)O)C(=O)N[C@@H](CCC(=O)O)C(=O)N1CCC[C@H]1C(=O)N[C@@H](CO)C(=O)N[C@@H](CO)C(=O)NCC(=O)N[C@@H](C)C(=O)N1CCC[C@H]1C(=O)N1CCC[C@H]1C(=O)N1CCC[C@H]1C(=O)N[C@@H](CO)C(=O)O)C(C)C [Compound A52] (H-YSHGTFTSDYSKYLDIKRAQEFV[Aib]WLEDEPSSGAPPPS-OH) | 29 | > 1
5 | CC(C)C[C@H](NC(=O)[C@H](Cc1ccc(O)cc1)NC(=O)[C@H](CCCCN)NC(=O)[C@H](CO)NC(=O)[C@H](Cc1ccc(O)cc1)NC(=O)[C@H](CC(=O)O)NC(=O)[C@H](CO)NC(=O)[C@@H](NC(=O)[C@H](Cc1ccccc1)NC(=O)[C@@H](NC(=O)CNC(=O)[C@H](Cc1c[nH]cn1)NC(=O)[C@H](CO)NC(=O)[C@@H](N)Cc1ccc(O)cc1)[C@@H](C)O)[C@@H](C)O)C(=O)N[C@@H](CC(=O)O)C(=O)NC(C)(C)C(=O)N[C@@H](CCCCN)C(=O)N[C@@H](CCCNC(=N)N)C(=O)N[C@@H](C)C(=O)N[C@@H](CCC(N)=O)C(=O)N[C@@H](CCC(=O)O)C(=O)N[C@@H](Cc1ccccc1)C(=O)N[C@H](C(=O)NC(C)(C)C(=O)N[C@@H](Cc1c[nH]c2ccccc12)C(=O)N[C@@H](CC(C)C)C(=O)N[C@@H](CCC(=O)O)C(=O)N[C@@H](CC(=O)O)C(=O)N[C@@H](CCC(=O)O)C(=O)N1CCC[C@H]1C(=O)N[C@@H](CO)C(=O)N[C@@H](CO)C(=O)N[C@@H](CCCCN)C(=O)N[C@@H](CCC(=O)O)C(=O)N1CCC[C@H]1C(=O)N1CCC[C@H]1C(=O)N1CCC[C@H]1C(=O)N[C@@H](CO)C(=O)O)C(C)C [Compound A54] (H-YSHGTFTSDYSKYLD[Aib]KRAQEFV[Aib]WLEDEPSSKEPPPS-OH; N-terminus assumed) | 24 | > 1

Other lines, results leading:

Row | clearance (in vivo) [mL/min/kg] | EC50 (human GLP-1R) [nM] | SMILES
6 | 39.9 | > 1 | CC(C)C[C@H](NC(=O)[C@H](Cc1ccc(O)cc1)NC(=O)[C@H](CCCCN)NC(=O)[C@H](CO)NC(=O)[C@H](Cc1ccc(O)cc1)NC(=O)[C@H](CC(=O)O)NC(=O)[C@H](CO)NC(=O)[C@@H](NC(=O)[C@H](Cc1ccccc1)NC(=O)[C@@H](NC(=O)CNC(=O)[C@H](Cc1c[nH]cn1)NC(=O)[C@H](CO)NC(=O)[C@@H](N)Cc1ccc(O)cc1)[C@@H](C)O)[C@@H](C)O)C(=O)N[C@@H](CC(=O)O)C(=O)NC(C)(C)C(=O)N[C@@H](CCCCN)C(=O)N[C@@H](CCCNC(=N)N)C(=O)N[C@@H](C)C(=O)N[C@@H](CCC(N)=O)C(=O)N[C@@H](CCC(=O)O)C(=O)N[C@@H](Cc1ccccc1)C(=O)N[C@H](C(=O)NC(C)(C)C(=O)N[C@@H](Cc1c[nH]c2ccccc12)C(=O)N[C@@H](CC(C)C)C(=O)N[C@@H](CCC(=O)O)C(=O)N[C@@H](CC(=O)O)C(=O)N[C@@H](CCC(=O)O)C(=O)N1CCC[C@H]1C(=O)N[C@@H](CCCCN)C(=O)N[C@@H](CO)C(=O)N[C@@H](CCCCN)C(=O)N[C@@H](C)C(=O)N1CCC[C@H]1C(=O)N1CCC[C@H]1C(=O)N1CCC[C@H]1C(=O)N[C@@H](CO)C(=O)O)C(C)C [Compound A56] (H-YSHGTFTSDYSKYLD[Aib]KRAQEFV[Aib]WLEDEPKSKAPPPS-OH; N-terminus assumed)
7 | 37.7 | > 1 | CC(C)C[C@H](NC(=O)[C@H](Cc1ccc(O)cc1)NC(=O)[C@H](CCCCN)NC(=O)[C@H](CO)NC(=O)[C@H](Cc1ccc(O)cc1)NC(=O)[C@H](CC(=O)O)NC(=O)[C@H](CO)NC(=O)[C@@H](NC(=O)[C@H](Cc1ccccc1)NC(=O)[C@@H](NC(=O)CNC(=O)[C@H](Cc1c[nH]cn1)NC(=O)[C@H](CO)NC(=O)[C@@H](N)Cc1ccc(O)cc1)[C@@H](C)O)[C@@H](C)O)C(=O)N[C@@H](CC(=O)O)C(=O)NC(C)(C)C(=O)N[C@@H](CCCCN)C(=O)N[C@@H](CCCNC(=N)N)C(=O)N[C@@H](C)C(=O)N[C@@H](CCC(N)=O)C(=O)N[C@@H](CCC(=O)O)C(=O)N[C@@H](Cc1ccccc1)C(=O)N[C@H](C(=O)NC(C)(C)C(=O)N[C@@H](Cc1c[nH]c2ccccc12)C(=O)N[C@@H](CC(C)C)C(=O)N[C@@H](CCC(=O)O)C(=O)N[C@@H](CC(=O)O)C(=O)N[C@@H](CCC(=O)O)C(=O)N1CCC[C@H]1C(=O)N[C@@H](CCCCN)C(=O)N[C@@H](CO)C(=O)N[C@@H](CCCCN)C(=O)N[C@@H](CO)C(=O)N1CCC[C@H]1C(=O)N1CCC[C@H]1C(=O)N1CCC[C@H]1C(=O)N[C@@H](CO)C(=O)O)C(C)C [Compound A58] (H-YSHGTFTSDYSKYLD[Aib]KRAQEFV[Aib]WLEDEPKSKSPPPS-OH; N-terminus assumed)

Reference: patent US20240239861A1, “GLUCAGON-RECEPTOR SELECTIVE POLYPEPTIDES AND METHODS OF USE THEREOF” (i2O Therapeutics, Inc., priority 2016, published 2024)
